# Reference: patent US6992079B2, “Substituted 11-phenyl-dibenzazepine compounds useful for the treatment or prevention of diseases characterized by abnormal cell proliferation” (President Fellows of Harvard College, priority 1997, dated 2006)
# Experiments:
# PC-3 = test: In-Vitro Testing SRB panel: Prostate Cancer; assay type: cell-based; conditions: PC-3, 48 h
# [1] = test system: cyclin D1 and E expression; test: Cyclin expression and cell cycle in vitro; assay type: cell-based
# OVCAR-3 = test: In-Vitro Testing SRB panel: Ovarian Cancer
# SF-539 = test: In-Vitro Testing SRB panel: CNS Cancer; assay type: cell-based; conditions: SF-539, 48 h
# COLO 205 = test: In-Vitro Testing SRB panel: Colon Cancer; assay type: cell-based; conditions: COLO 205, 48 h
# T-47D = test: In-Vitro Testing SRB panel: Breast Cancer; assay type: cell-based; conditions: 48 h
# IGROV1 = test: In-Vitro Testing SRB panel: Ovarian Cancer; assay type: cell-based
# SNB-75 = test: In-Vitro Testing SRB panel: CNS Cancer; assay type: cell-based; conditions: SNB-75, 48 h
# [2] = Preliminary toxicity studies in mice and rats; assay type: in vivo
# HCT-116 = test: In-Vitro Testing SRB panel: Colon Cancer; assay type: cell-based; conditions: HCT-116, 48 h
# MC-F7 = test: In-Vitro Testing SRB panel: Breast Cancer; assay type: cell-based
# HT29 = test: SRB antiproliferative assay; assay type: cell-based; conditions: Homo sapiens
# Excerpt: (§1) The cells were passaged using Trypsin (Gibco).
# HEPG2 = test: SRB antiproliferative assay; assay type: cell-based; conditions: Homo sapiens
# Excerpt: as §1
# A549 = test: SRB antiproliferative assay; assay type: cell-based; conditions: Homo sapiens
# Excerpt: as §1
# MCF7 = test: SRB antiproliferative assay; assay type: cell-based; conditions: Homo sapiens
# Excerpt: as §1
# U118MG = test: SRB antiproliferative assay; assay type: cell-based; conditions: Homo sapiens, U-118-MG
# Excerpt: as §1
# HeLa = test: SRB antiproliferative assay; assay type: cell-based; conditions: Homo sapiens, HeLa (Cervical), 5% FCS/5 day incubation
# Excerpt: as §1
# SNB-19 = test: In-Vitro Testing SRB panel: CNS Cancer; assay type: cell-based; conditions: SNB-19, 48 h
# SF-295 = test: In-Vitro Testing SRB panel: CNS Cancer; assay type: cell-based; conditions: SF-295, 48 h
# ACHN = test: In-Vitro Testing SRB panel: Renal Cancer; assay type: cell-based; conditions: 48 h
# U251 = test: In-Vitro Testing SRB panel: CNS Cancer; assay type: cell-based
# [3] = test system: PC-3 human prostate carcinoma; test: Mouse xenograft tumor growth; assay type: in vivo
# [4] = Homo sapiens, read-out: LC50 (the source's name)
# [5] = administered intraperitoneally, orally or subcutaneously
smiles,measurement,setting,value
"O=C(c1ccc([N+](=O)[O-])cc1)N1Cc2ccccc2C(c2ccccc2Cl)c2ccccc21 (centres unmarked) [Compound 28, N-(4′-Nitrobenzoyl)-11-(2′-chlorophenyl)-5,6-dihydro-11H-dibenz[b,e]azepine]",GI50,PC-3; Homo sapiens,501 nM
same,CC50,PC-3; [4],> 100000 nM
same,TGI,PC-3,9.10E−06 Molar
same,Percent Growth,PC-3; log10 conc −4.0 Molar,−9%
same,Percent Growth,PC-3; log10 conc −5.0 Molar,−2%
same,Percent Growth,PC-3; log10 conc −6.0 Molar,40%
same,Percent Growth,PC-3; log10 conc −7.0 Molar,74%
same,Percent Growth,PC-3; log10 conc −8.0 Molar,109%
same,cell cycle arrest,[1],induction of G0-G1 cell cycle arrest
same,cyclin D1 and E expression,[1],inhibit cyclin D1 and E expression
same,GI50,"OVCAR-3; Homo sapiens, OVCAR-3, 48 h",5250 nM
same,CC50,"OVCAR-3; Homo sapiens, OVCAR-3, 48 h, read-out: LC50",> 100000 nM
same,TGI,"OVCAR-3; OVCAR-3, 48 h",>1.00E−04 Molar
same,Percent Growth,"OVCAR-3; OVCAR-3, log10 conc −4.0 Molar, 48 h",31%
same,Percent Growth,"OVCAR-3; OVCAR-3, log10 conc −5.0 Molar, 48 h",44%
same,Percent Growth,"OVCAR-3; OVCAR-3, log10 conc −6.0 Molar, 48 h",64%
same,Percent Growth,"OVCAR-3; OVCAR-3, log10 conc −7.0 Molar, 48 h",95%
same,Percent Growth,"OVCAR-3; OVCAR-3, log10 conc −8.0 Molar, 48 h",89%
same,GI50,SF-539; Homo sapiens,25600 nM
same,CC50,SF-539; [4],> 100000 nM
same,TGI,SF-539,>1.00E−04 Molar
same,Percent Growth,SF-539; log10 conc −4.0 Molar,35%
same,Percent Growth,SF-539; log10 conc −5.0 Molar,61%
same,Percent Growth,SF-539; log10 conc −6.0 Molar,86%
same,Percent Growth,SF-539; log10 conc −7.0 Molar,107%
same,Percent Growth,SF-539; log10 conc −8.0 Molar,82%
same,TGI,COLO 205,1.41E−05 Molar
same,Percent Growth,COLO 205; log10 conc −4.0 Molar,−60%
same,Percent Growth,COLO 205; log10 conc −5.0 Molar,10%
same,Percent Growth,COLO 205; log10 conc −6.0 Molar,40%
same,Percent Growth,COLO 205; log10 conc −7.0 Molar,77%
same,Percent Growth,COLO 205; log10 conc −8.0 Molar,79%
same,GI50,COLO 205; Homo sapiens,845 nM
same,CC50,COLO 205; [4],> 72500 nM
same,GI50,"T-47D; Homo sapiens, T47D",1440 nM
same,CC50,"T-47D; Homo sapiens, T47D, T-47D, read-out: LC50 (the source's name)",> 100000 nM
same,TGI,T-47D; T-47D,>1.00E−04 Molar
same,Percent Growth,"T-47D; T-47D, log10 conc −4.0 Molar",26%
same,Percent Growth,"T-47D; T-47D, log10 conc −5.0 Molar",21%
same,Percent Growth,"T-47D; T-47D, log10 conc −6.0 Molar",55%
same,Percent Growth,"T-47D; T-47D, log10 conc −7.0 Molar",90%
same,Percent Growth,"T-47D; T-47D, log10 conc −8.0 Molar",95%
same,GI50,"IGROV1; Homo sapiens, IGROV-1, 48 h",1880 nM
same,CC50,"IGROV1; Homo sapiens, IGROV-1, IGROV1, 48 h, read-out: LC50 (the source's name)",> 100000 nM
same,TGI,"IGROV1; IGROV1, 48 h",>1.00E−04 Molar
same,Percent Growth,"IGROV1; IGROV1, log10 conc −4.0 Molar, 48 h",25%
same,Percent Growth,"IGROV1; IGROV1, log10 conc −5.0 Molar, 48 h",34%
same,Percent Growth,"IGROV1; IGROV1, log10 conc −6.0 Molar, 48 h",56%
same,Percent Growth,"IGROV1; IGROV1, log10 conc −7.0 Molar, 48 h",97%
same,Percent Growth,"IGROV1; IGROV1, log10 conc −8.0 Molar, 48 h",102%
same,GI50,SNB-75; Homo sapiens,5250 nM
same,CC50,SNB-75; [4],> 100000 nM
same,TGI,SNB-75,>1.00E−04 Molar
same,Percent Growth,SNB-75; log10 conc −4.0 Molar,17%
same,Percent Growth,SNB-75; log10 conc −5.0 Molar,26%
same,Percent Growth,SNB-75; log10 conc −6.0 Molar,75%
same,Percent Growth,SNB-75; log10 conc −7.0 Molar,111%
same,Percent Growth,SNB-75; log10 conc −8.0 Molar,108%
same,body weight losses,[2]; [5],did not cause significant body weight losses
same,"gross observations of brain, heart, lungs, liver, spleen, kidney and gastrointestinal tract",[2]; [5],no abnormalities were detected
same,systemic toxicity,[2]; mice and rats,no obvious systemic toxicity
same,TGI,HCT-116,>1.00E−04 Molar
same,Percent Growth,HCT-116; log10 conc −4.0 Molar,11%
same,Percent Growth,HCT-116; log10 conc −5.0 Molar,19%
same,Percent Growth,HCT-116; log10 conc −6.0 Molar,27%
same,Percent Growth,HCT-116; log10 conc −7.0 Molar,93%
same,Percent Growth,HCT-116; log10 conc −8.0 Molar,103%
same,GI50,HCT-116; Homo sapiens,447 nM
same,CC50,HCT-116; [4],> 100000 nM
same,GI50,"MC-F7; Homo sapiens, MCF7, 48 h",872 nM
same,CC50,"MC-F7; Homo sapiens, MCF7, MC-F7, 48 h, read-out: LC50 (the source's name)",> 100000 nM
same,TGI,"MC-F7; MC-F7, 48 h",>1.00E−04 Molar
same,Percent Growth,"MC-F7; MC-F7, log10 conc −4.0 Molar, 48 h",8%
same,Percent Growth,"MC-F7; MC-F7, log10 conc −5.0 Molar, 48 h",21%
same,Percent Growth,"MC-F7; MC-F7, log10 conc −6.0 Molar, 48 h",48%
same,Percent Growth,"MC-F7; MC-F7, log10 conc −7.0 Molar, 48 h",88%
same,Percent Growth,"MC-F7; MC-F7, log10 conc −8.0 Molar, 48 h",97%
same,IC50,"HT29; HT-29, HT29 (Colon), 5% FCS/5 day incubation",300 nM
same,IC50,"HT29; HT-29, HT29, 5% FCS/3 days",< 1250 nM
same,IC50,"HEPG2; HepG2, HEPG2 (Hepatocel), 5% FCS/5 day incubation",300 nM
same,IC50,"HEPG2; HepG2, HEPG2, 5% FCS/3 days",< 1250 nM
same,IC50,"A549; A549, A549 (Lung), 5% FCS/5 day incubation",800 nM
same,IC50,"A549; A549, A549, 5% FCS/3 days",1800 nM
same,IC50,"MCF7; MCF7, MCF7 (Breast), 5% FCS/5 day incubation",600 nM
same,IC50,"MCF7; MCF7, MCF7, 5% FCS/3 days",2100 nM
same,IC50,"U118MG; U118MG (CNS), 5% FCS/5 day incubation",500 nM
same,IC50,"U118MG; U118MG, 5% FCS/3 days",1300 nM
same,IC50,HeLa,300 nM
same,GI50,SNB-19; Homo sapiens,3270 nM
same,CC50,SNB-19; [4],> 100000 nM
same,TGI,SNB-19,>1.00E−04 Molar
same,Percent Growth,SNB-19; log10 conc −4.0 Molar,32%
same,Percent Growth,SNB-19; log10 conc −5.0 Molar,44%
same,Percent Growth,SNB-19; log10 conc −6.0 Molar,56%
same,Percent Growth,SNB-19; log10 conc −7.0 Molar,95%
same,Percent Growth,SNB-19; log10 conc −8.0 Molar,99%
same,GI50,SF-295; Homo sapiens,442 nM
same,CC50,SF-295; [4],> 100000 nM
same,TGI,SF-295,>1.00E−04 Molar
same,Percent Growth,SF-295; log10 conc −4.0 Molar,10%
same,Percent Growth,SF-295; log10 conc −5.0 Molar,20%
same,Percent Growth,SF-295; log10 conc −6.0 Molar,36%
same,Percent Growth,SF-295; log10 conc −7.0 Molar,75%
same,Percent Growth,SF-295; log10 conc −8.0 Molar,88%
same,TGI,ACHN,>1.00E−04 Molar
same,GI50,ACHN; Homo sapiens,1370 nM
same,CC50,ACHN; [4],> 100000 nM
same,Percent Growth,ACHN; log10 conc −4.0 Molar,19%
same,Percent Growth,ACHN; log10 conc −5.0 Molar,30%
same,Percent Growth,ACHN; log10 conc −6.0 Molar,53%
same,Percent Growth,ACHN; log10 conc −7.0 Molar,92%
same,Percent Growth,ACHN; log10 conc −8.0 Molar,102%
same,GI50,"U251; Homo sapiens, U-251, 48 h",476 nM
same,CC50,"U251; Homo sapiens, U-251, U251, 48 h, read-out: LC50 (the source's name)",> 100000 nM
same,TGI,"U251; U251, 48 h",>1.00E−04 Molar
same,Percent Growth,"U251; U251, log10 conc −4.0 Molar, 48 h",8%
same,Percent Growth,"U251; U251, log10 conc −5.0 Molar, 48 h",9%
same,Percent Growth,"U251; U251, log10 conc −6.0 Molar, 48 h",28%
same,Percent Growth,"U251; U251, log10 conc −7.0 Molar, 48 h",94%
same,Percent Growth,"U251; U251, log10 conc −8.0 Molar, 48 h",104%
same,apparent toxicity,[3]; PC-3 mouse xenograph,no sign of apparent toxicity
same,growth of PC-3 human prostate carcinoma,[3]; mouse xenograph,significant inhibitory effects on the growth
